Consider 15 molecules from BindingDB's records for doi:10.1007/s00044-013-0797-8 (n/a, 2013).

Values joined by “and” are separate entries in the source; they are usually repeats but may differ in a detail not shown here. Equal values may be shown once.

The assay addresses T1, Tyrosine-protein phosphatase non-receptor type 1 (Homo sapiens, UniProt P18031).
T1 sequence (P18031 whole entry): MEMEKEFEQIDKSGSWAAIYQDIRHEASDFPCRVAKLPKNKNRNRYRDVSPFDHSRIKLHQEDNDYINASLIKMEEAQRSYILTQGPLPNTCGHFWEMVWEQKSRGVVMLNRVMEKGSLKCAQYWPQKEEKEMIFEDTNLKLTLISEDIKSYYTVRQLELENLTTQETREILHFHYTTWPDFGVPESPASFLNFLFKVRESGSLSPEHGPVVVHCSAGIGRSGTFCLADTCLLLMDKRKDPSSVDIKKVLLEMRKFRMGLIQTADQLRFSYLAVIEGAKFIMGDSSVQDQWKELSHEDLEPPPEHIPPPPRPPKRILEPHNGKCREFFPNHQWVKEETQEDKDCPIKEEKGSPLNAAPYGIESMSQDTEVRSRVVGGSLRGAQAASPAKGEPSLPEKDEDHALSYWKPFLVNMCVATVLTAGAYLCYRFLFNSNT
In words: Non-competitive reversible inhibition of human PTP1B.

Consider `COc1ccccc1-n1nc2c(c(C#N)c1=N)CC(C)(C)OC2`, for which the IC50 (in general, the concentration that inhibits the measured activity by half) is 6.19 µM and 6.2 µM.
Under `CC1(C)Cc2c(nn(-c3cccc(C(F)(F)F)c3)c(=N)c2C#N)CO1` stands 2.8 µM.
`N#Cc1c2c(nn(-c3ccc(F)cc3)c1=N)CSCC2` had a half-inhibitory concentration (IC50) of 2 µM.
The value for `CC(C)c1ccccc1-n1nc2c(c(C#N)c1=N)CCSC2` was 2 µM; that for `CCc1ccc(-n2nc3c(c(C#N)c2=N)CC(C)(C)OC3)cc1` was 2.8 µM; that for `CC1(C)Cc2c(nn(-c3cccc(CO)c3)c(=N)c2C#N)CO1` was 2.4 µM.
`CCCCc1ccc(-n2nc3c(c(C#N)c2=N)CC(C)(C)OC3)cc1` gave a half-inhibitory concentration (IC50) of 7 µM.
The value for `CC(C)c1cccc(-n2nc3c(c(C#N)c2=N)CC(C)(C)OC3)c1` was 8.2 µM; that for `CC1(C)Cc2c(nn(-c3ccc(CCO)cc3)c(=N)c2C#N)CO1` was 2.9 µM.
Under `CC1(C)Cc2c(nn(-c3ccccc3C(F)(F)F)c(=N)c2C#N)CO1` stands 3.9 µM.
The value for `CC1(C)Cc2c(nn(-c3ccccc3F)c(=N)c2C#N)CO1` was 2.4 µM; that for `CC(=O)Nc1ccc(-n2nc3c(c(C#N)c2=N)CC(C)(C)OC3)cc1` was 6.1 µM.
Molecule `CCc1cccc(-n2nc3c(c(C#N)c2=N)CC(C)(C)OC3)c1` yielded a half-maximal inhibitory concentration (IC50) of 8.2 µM.
Under `CC1(C)Cc2c(nn(-c3ccccc3N3CCOCC3)c(=N)c2C#N)CO1` stands 2.9 µM.
The value for `CC1(C)Cc2c(nn(-c3cccc(Oc4ccccc4)c3)c(=N)c2C#N)CO1` was 3.9 µM.
